The values below come from US5548062A, “Tumor cell invasion-inhibiting peptides, peptide complexes and cancer metastasis inhibitors” (Asahi Glass Company Ltd., priority 1990, dated 1996).

Where a SMILES comes first, the peptide text is derived from it.

The data set is described as follows: Kinetics in blood after injection into the tail vein. Conditions: female, C57BL/6j, mouse, in vivo, iv. More on the design: species or system C57BL/6j mouse. The method, then: The kinetics in blood of the peptide of the formula (14) prepared in the Reference Example and the [^14 C]-labeled complex prepared in Example D-2 were studied.
To the vein of the tail of a C57BL/6j mouse (8 weeks old, female), 1,000 μg/0.2 cm^3 of the peptide or 100 μg/0.2 cm^3 of the labeled complex was injected. Upon expiration of a predetermined period of time, the carotid artery was cut for blood sampling. To quantitatively analyze the amount of the peptide in blood, to 1 cm^3 of the sampled blood, the same amount of 10% trifluoroacetic acid was added, followed by centrifugal separation at a speed of 10,000 rpm to precipitate the denatured protein, and the supernatant was recovered. […] To the obtained freeze-dried product, 0.2 cm^3 of distilled water was added, and the quantitative analysis was conducted by reversed phase (C18) chromatography. The quantitative analysis was conducted based on the quantitative curve obtained with a standard product (the peptide prepared in the Reference Example and quantitatively analyzed by an amino acid analysis).
To quantitatively analyze the [^14 C]-labeled complex, 2.5 cm^3 of a tissue solubilizer (NCA, Amersham Company) was added to 0.2 cm^3 of the sampled blood, followed by heating at 50° C. for two hours to solubilize the blood. […]

By half-life is commonly meant the time in which the quantity being followed falls by half. `C[C@H](N)C(=O)N[C@@H](CCC(=O)O)C(=O)N[C@@H](CC(=O)O)C(=O)NCC(=O)N[C@@H](CC(=O)O)C(=O)N[C@@H](C)C(=O)N[C@@H](CCCCN)C(=O)N[C@H](C(=O)N[C@@H](CC(=O)O)C(=O)N[C@@H](CCC(N)=O)C(=O)N[C@@H](C)C(=O)N[C@@H](CCC(=O)O)C(=O)N[C@@H](CCCCN)C(=O)N[C@@H](C)C(=O)N[C@@H](CCC(=O)O)C(=O)NCC(=O)N[C@@H](C)C(=O)NCC(=O)N[C@@H](CC(=O)O)C(=O)N[C@@H](C)C(=O)N[C@@H](CCCCN)C(=O)O)[C@@H](C)O` [peptide of the formula (14), Ala-Glu-Asp-Gly-Asp-Ala-Lys-Thr-Asp-Glx-Ala-Glx-Lys-Ala-Glu-Gly-Ala-Gly-As p-Ala-Lys] (H-AEDGDAKTDQAEKAEGAGDAK-OH) had a half-life of around 20 s.
